Data as given in patent US9255100B2 (BAYER INTELLECTUAL PROPERTY GMBH, priority 2010, dated 2016).

target: T1, N-terminally GST-tagged human full length recombinant Mps-1 kinase (Homo sapiens, UniProt P33981); experiment: Mps-1 kinase assay (TR-FRET); format: biochemical; conditions: Mps1 IC50 [nM], 10 μM ATP, 1 μM peptide substrate, 60 min at 22° C.
T1 construct: N-terminally GST-tagged human full length recombinant Mps-1 kinase; purchased Invitrogen, Karslruhe, Germany PV4071
T1 sequence (P33981 1-857): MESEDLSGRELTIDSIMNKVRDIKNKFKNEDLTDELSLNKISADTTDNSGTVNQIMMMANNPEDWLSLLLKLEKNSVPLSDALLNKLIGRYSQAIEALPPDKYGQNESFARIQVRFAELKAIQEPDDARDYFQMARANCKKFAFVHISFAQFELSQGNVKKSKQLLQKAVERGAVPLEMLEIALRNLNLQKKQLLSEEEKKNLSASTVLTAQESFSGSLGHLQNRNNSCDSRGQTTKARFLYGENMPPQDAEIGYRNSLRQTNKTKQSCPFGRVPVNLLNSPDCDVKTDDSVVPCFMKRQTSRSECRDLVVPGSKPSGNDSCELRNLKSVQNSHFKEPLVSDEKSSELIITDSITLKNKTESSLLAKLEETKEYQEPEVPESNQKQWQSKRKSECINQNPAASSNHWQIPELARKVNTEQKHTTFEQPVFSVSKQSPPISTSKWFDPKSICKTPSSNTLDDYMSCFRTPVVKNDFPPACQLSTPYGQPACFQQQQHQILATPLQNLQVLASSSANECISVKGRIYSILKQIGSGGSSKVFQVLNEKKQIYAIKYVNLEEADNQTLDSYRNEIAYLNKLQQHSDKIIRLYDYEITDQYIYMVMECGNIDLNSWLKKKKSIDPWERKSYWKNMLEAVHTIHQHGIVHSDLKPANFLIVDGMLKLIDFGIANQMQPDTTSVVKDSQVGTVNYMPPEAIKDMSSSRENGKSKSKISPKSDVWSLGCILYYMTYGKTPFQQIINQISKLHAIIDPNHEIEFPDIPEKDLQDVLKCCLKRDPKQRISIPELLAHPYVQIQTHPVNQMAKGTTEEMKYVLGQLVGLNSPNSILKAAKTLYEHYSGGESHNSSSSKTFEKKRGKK
Procedure, shortened: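 Kinase activity of N-terminally GST-tagged full-length recombinant Mps-1, used at about 1 nM final and set within the linear range, was measured on a biotinylated peptide substrate. Phosphopeptide was detected by TR-FRET from Eu-anti-phospho(Ser/Thr) antibody to streptavidin-XLent after 1 h at 22° C.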

Compound | IC50 [nM]
CCNC(=O)c1ccc(-c2cnc3c(NCCC(F)(F)F)cc(Oc4ccc(OC)cc4F)nn23)cc1C [Example 602, N-ethyl-4-{6-(2-fluoro-4-methoxyphenoxy)-8-[(3,3,3-trifluoropropyl)a-mino]imidazo[1,2-b]pyridazin-3-yl}-2-methylbenzamide] | < 1
Cc1c[nH]c(Sc2cc(NCC(C)(C)O)c3ncc(-c4ccc(C(=O)NC5CC5)c(C)c4)n3n2)n1 [Example 317, N-cyclopropyl-4-{8-[(2-hydroxy-2-methylpropyl)amino]-6-[(4-methyl-1H-imidazol-2-yl)sulfanyl]imidazo[1,2-b]pyridazin-3-yl}-2-methylbenzamide] | 7.4
Cc1cc(-c2cnc3c(NCC(C)(C)O)cc(Nc4ccccn4)nn23)ccc1C(=O)NC1CC1 [Example 357, N-cyclopropyl-4-{8-[(2-hydroxy-2-methylpropyl)amino]-6-(pyridin-2-ylamino)imidazo[1,2-b]pyridazin-3-yl}-2-methylbenzamide] | 4.4
Cc1cc(-c2cnc3c(NCC4CCSCC4)cc(Oc4cccc(F)c4)nn23)ccc1C(=O)NC1CC1 [Example 281, N-cyclopropyl-4-{6-(3-fluorophenoxy)-8-[(tetrahydro-2H-thiopyran-4-ylmethyl)amino]imidazo[1,2-b]pyridazin-3-yl}-2-methylbenzamide] | 0.3
Cc1cc(-c2cnc3c(NCC(C)(C)O)cc(-c4ccnn4C)nn23)ccc1C(=O)NC1CC1 [Example 21, N-cyclopropyl-4-{8-[(2-hydroxy-2-methylpropyl)amino]-6-(1-methyl-1H-pyrazol-5-yl)imidazo[1,2-b]pyridazin-3-yl}-2-methylbenzamide] | 3.7
Cc1cc(-c2cnc3c(NCC(C)(C)O)cc(Oc4cccc(C(C)C)c4)nn23)ccc1C(=O)NC1CC1 [Example 94, N-cyclopropyl-4-{8-[(2-hydroxy-2-methylpropyl)amino]-6-(3-isopropylphenoxy)imidazo[1,2-b]pyridazin-3-yl}-2-methylbenzamide] | 0.3
Cc1cc(-c2cnc3c(NCCCO)cc(-c4ccnn4C)nn23)ccc1C(=O)NC1CC1 [Example 211, N-cyclopropyl-4-{8-[(3-hydroxypropyl)amino]-6-(1-methyl-1H-pyrazol-5-yl)imidazo[1,2-b]pyridazin-3-yl}-2-methylbenzamide] | 5.8
Cc1cc(-c2cnc3c(NCC(C)(C)O)cc(Sc4ccncc4)nn23)ccc1C(=O)NC1CC1 [Example 333, N-cyclopropl-4-{8-[(2-hydroxy-2-methylpropyl)amino]-6-(pyridin-4-yl-sulfanyl)imidazo[1,2-b]pyridazin-3-yl}-2-methyl-benzamide] | 9.5

The next lines start with the values.

IC50 [nM] | Compound
0.4 | COc1ccc(C)c(Nc2cc(NCC(C)(C)O)c3ncc(-c4ccc(C(=O)NC5CC5)c(C)c4)n3n2)c1 [Example 349, N-cyclopropyl-4-{8-[(2-hydroxy-2-methylpropyl)amino]-6-[(5-methoxy-2-methylphenyl)amino]imidazo[1,2-b]pyridazin-3-yl}-2-methylbenzamide]
0.2 | COc1ccc(Nc2cc(NCCC(F)(F)F)c3ncc(-c4ccc(C(=O)NC5CC5)c(C)c4)n3n2)cc1F [Example 424, N-cyclopropyl-4-{6-[(3-fluoro-4-methoxyphenyl)amino]-8-[(3,3,3-trifluoropropyl)amino]imidazo[1,2-b]pyridazin-3-yl}-2-methylbenzamide]
0.9 | Cc1cc(-c2cnc3c(NCC(C)(C)O)cc(Nc4cccc(Cl)c4)nn23)ccc1C(=O)NC1CC1 [Example 355, 4-{6-[(3-chlorophenyl)amino]-8-[(2-hydroxy-2-methylpropyl)amino]imidazo[1,2-b]pyridazin-3-yl}-N-cyclopropyl-2-methylbenzamide]
0.1 | COc1ccc(Nc2cc(NCCC(F)(F)F)c3ncc(-c4ccc(C(=O)NC5CC5)c(C)c4)n3n2)cc1 [Example 425, N-cyclopropyl-4-{6-[(4-methoxyphenyl)amino]-8-[(3,3,3-trifluoropropyl)amino]imidazo[1,2-b]pyridazin-3-yl}-2-methylbenzamide]
